Earlier results on one compound are cited in PMC11091888, “Evaluation of Fusobacterium nucleatum Enoyl-ACP Reductase (FabK) as a Narrow-Spectrum Drug Target” (ACS Infectious Diseases, 2024).

The data set has as its system CdFabK. The arrangement: method as in PMID 37224699. Particulars: previously reported, cited from earlier work.

Broadly, the IC50 is the concentration that gives 50% inhibition. `CS(=O)(=O)c1ccc2nc(NC(=O)NCc3nc(-c4ccc(Br)cc4)c[nH]3)sc2c1` [Compound 681, 1-((4-(4-bromophenyl)-1H-imidazole-2-yl)methyl)-3-(6-(methylsulfonyl)benzo[d]thiazol-2-yl)urea]: the “IC50 against CdFabK, equivalent concentration” value was 0.2 µg/mL. Under “read-out: IC50 against CdFabK”, the IC50 was 450 nM.
